Values after ≈ are worked out from the molar mass of the structure shown. Each block holds one compound with its values, some of them ahead of it.
Experiments:
Format in all cases: cell-based
[1] = test system: Aspergillus fumigatus + Candida albicans co-culture (1:1); assay: Broth microdilution MIC assay against co-culture of fungal spores; conditions: Table 4, repeated MIC study, agent alone, listed as Itraconazone
Description: Broth Microdilution Minimal Inhibitory Concentration (MIC) assays were performed to obtain the MIC values for Itraconazole and Ketoconazole with an antibiotic (Vancomycin or Tobramycin or Amikacin) against the two fungal strains.
The strains were maintained as a frozen glycerol stocks at −80° C. The fungal strains were prepared by thawing a glycerol stock, streaking and growing onto Sabouraud's Dextrose Agar (SDA) plates, overnight at 35±2° C. in aerobic conditions and used for the assay.
The completely synthetic medium RPMI-1640 (with glutamine, without bicarbonate, and with phenol red as a pH indicator) was buffered with 0.165 mol/L MOPS (3-[N-morpholino] propanesulfonic acid) buffer was used as the growth medium for the fungal strains. Overnight cultures of the fungal strains were grown on Difco™ Sabouraud's Dextrose Agar (SDA) plates at 35° C. To induce conidium and sporangiospore formation, the culture plates were transferred to incubator and grown for 5-7 days 30° C. or until good sporulation was obtained. Approximately, 10 mL of 0.85% saline containing 0.01% of Tween 80 was used to poured on to the agar plate containing conidia or sporangiospores and hyphal fragments. The suspension containing conidia or sporangiospores and hyphal fragments was aspirated and transferred to a sterile tube. This mixture was filtered to separate the spores from the vegetative cells of the fungi. […]

Candida albicans = assay: Culture of Patient 7, sensitivity of isolate; conditions: Patient 7 culture
Source text: (§1) The patient underwent the standard workup for CRS, sleep disorder, and nasal obstruction, plus our diagnostic skin test and sinus CT scan.

gram negative bacteria = assay: Culture of Patient 7, sensitivity of isolate; conditions: Patient 7 culture
Source text: as §1

MIC [1]: 1 µg/mL (≈ 1.42 µM)
SMILES: CCC(C)n1ncn(-c2ccc(N3CCN(c4ccc(OCC5COC(Cn6cncn6)(c6ccc(Cl)cc6Cl)O5)cc4)CC3)cc2)c1=O (stereo not drawn) [Itraconazole]

SMILES: CC(=O)N1CCN(c2ccc(OCC3COC(Cn4ccnc4)(c4ccc(Cl)cc4Cl)O3)cc2)CC1 (stereo not drawn) [Ketoconazole]
Sensitivity of cultured isolate (Candida albicans): sensitive

SMILES: NC[C@H]1O[C@H](O[C@H]2[C@H](O)[C@@H](O[C@H]3O[C@H](CO)[C@@H](O)[C@H](N)[C@H]3O)[C@H](N)C[C@@H]2N)[C@H](N)C[C@@H]1O [tobramycin]
Sensitivity of cultured isolate (gram negative bacteria): sensitive
